Test results reported in article PMC4289246, “Dose-dependent effects of lesogaberan on reflux measures in patients with refractory gastroesophageal reflux disease: a randomized, placebo-controlled study” (BMC Gastroenterology, 2014).

Test system: patients with GERD who had a partial response to PPI treatment
Assay: 24-h impedance–pH measurement of reflux variables, crossover vs placebo
Assay type: in vivo, human
Settings: for Difference in geometric mean, number of reflux episodes in supine position / Difference in geometric mean, number of reflux episodes in upright position / Difference in geometric mean, number of weakly acid reflux episodes / Difference in geometric mean, number of acid reflux episodes / Difference in geometric mean, number of mixed gas/liquid reflux episodes / Difference in geometric mean, number of pure liquid reflux episodes / Difference in geometric mean, proportion of time with esophageal pH < 4 / Difference in geometric mean, proportion of time with intragastric pH < 4 / Difference in geometric mean, proximal extent of reflux (cm) / Difference in geometric mean, total number of reflux episodes: relative to placebo; for Difference in geometric mean, number of weakly acid reflux episodes: pH 4.0–6.5; for Difference in geometric mean, number of weakly acid reflux episodes / Difference in geometric mean, number of acid reflux episodes / Difference in geometric mean, number of mixed gas/liquid reflux episodes / Difference in geometric mean, number of pure liquid reflux episodes / Difference in geometric mean, proportion of time with esophageal pH < 4 / Difference in geometric mean, proportion of time with intragastric pH < 4 / Difference in geometric mean, proximal extent of reflux (cm) / Difference in geometric mean, total number of reflux episodes: upright or supine; for Difference in geometric mean, number of acid reflux episodes: pH < 4
Procedure: This was a randomized, double-blind, placebo-controlled, four-way crossover, phase 2a study. Patients were randomized to receive one of 10 treatment sequences each consisting of placebo and three of the four different lesogaberan doses (30, 90, 120 and 240 mg). These were given on different days, each separated by a 7–28-day washout period. […] Each dose was given twice over a 24-h period in the form of modified-release capsules: one taken 1 h before breakfast after fasting the night before, and the other taken 1 h before dinner. (Note that patients fasted overnight before each study period: no food after 22:00 and no fluids after 24:00.) Treatment with patients’ usual, regular and optimized dose of PPI was continued throughout the study.
Impedance–pH measurements were taken for 24 h after the first administration of each dose using a Sleuth® multichannel intraluminal impedance ambulatory system (Sandhill Scientific, Inc., Highlands Ranch, CO, USA). This device includes a data logger, impedance–pH amplifiers, and a catheter consisting of two antimony pH sensors (calibrated before and after recordings were taken using standard pH 7 and pH 1 buffers) placed 5 cm above and 10 cm below the lower esophageal sphincter (LES) and eight impedance electrodes placed 2, 4, 6, 8, 10, 14, 16 and 18 cm above the LES. The electrodes are paired to measure impedance at 3, 5, 7, 9, 15 and 17 cm above the LES. The position of the LES was located by a manometric recording before the study medication or placebo was given.
Impedance–pH readings were analysed by one investigator (JP) using dedicated software (BioVIEW Analysis®, version 5.5.4; Sandhill Scientific Inc.) and were then checked manually. This was performed in a blinded manner and the results were used to determine the number of reflux episodes, defined as a period when impedance decreased to less than 50% of baseline (liquid episode) or increased to more than 150% of baseline (gas episode), propagating […] from the most distal channel. Acid, weakly acid and non-acid reflux episodes were defined as episodes lasting longer than 5 s with a pH of < 4, 4.0–6.5 and > 6.5, respectively. The decision to use a cautious cut-off pH of 6.5 was taken in order to ensure that no measurements near to a pH of 7 would be erroneously categorized as weakly acidic. These definitions have previously been employed for studies of this type. During the 24-h period of ambulatory impedance–pH measurement, patients used a data logger and a diary card to record their meal intake and periods in supine position, as well as any GERD symptoms.
The effect of each dose of lesogaberan was measured as the proportional difference, relative to placebo, in the geometric mean of the reflux variables assessed over 24 h. The analysis was based on a mixed-effect model with treatment, period and sequence as fixed effects and patient as a random effect. Geometric means and relative differences in geometric means were reported with 95% CIs. A p value of < 0.05 was considered to indicate statistical significance and no corrections for multiple testing were performed. Multiplicity was accounted for by using a step-down sequential procedure comparing lesogaberan doses with placebo, starting at a 240 mg dose and, in the event of rejection of the null hypothesis, comparison of descending doses.

[1] = 30 mg twice in 24 h, add-on to PPI
[2] = 90 mg twice in 24 h, add-on to PPI
[3] = 120 mg twice in 24 h, add-on to PPI
[4] = 240 mg twice in 24 h, add-on to PPI

NC[C@@H](F)C[PH](=O)O [lesogaberan, (R)-(3-amino-2-fluoropropyl) phosphinic acid]
Difference in geometric mean, number of reflux episodes in supine position [1]: -37.3% | Difference in geometric mean, number of reflux episodes in upright position [1]: -25.2% | Difference in geometric mean, number of weakly acid reflux episodes [1]: -28.3% | Difference in geometric mean, number of acid reflux episodes [1]: -34.7% | Difference in geometric mean, number of mixed gas/liquid reflux episodes [1]: -25.0% | Difference in geometric mean, number of pure liquid reflux episodes [1]: -27.9% | Difference in geometric mean, proportion of time with esophageal pH < 4 [1]: -69.8% | Difference in geometric mean, proportion of time with intragastric pH < 4 [1]: +40.4% | Difference in geometric mean, proximal extent of reflux (cm) [1]: -39.1% | Difference in geometric mean, total number of reflux episodes [1]: -26.2% | reduction in the mean number of pure liquid reflux episodes relative to placebo [2]: 53.0% | reduction in the mean number of total reflux episodes relative to placebo [2]: approximately 37% | Difference in geometric mean, number of reflux episodes in supine position [2]: -12.3% | Difference in geometric mean, number of reflux episodes in upright position [2]: -38.4% | Difference in geometric mean, number of weakly acid reflux episodes [2]: -31.4% | Difference in geometric mean, number of acid reflux episodes [2]: -45.5% | Difference in geometric mean, number of mixed gas/liquid reflux episodes [2]: -28.3% | Difference in geometric mean, number of pure liquid reflux episodes [2]: -53.0% | Difference in geometric mean, proportion of time with esophageal pH < 4 [2]: -56.1% | Difference in geometric mean, proportion of time with intragastric pH < 4 [2]: +23.7% | Difference in geometric mean, proximal extent of reflux (cm) [2]: -58.9% | Difference in geometric mean, total number of reflux episodes [2]: -37.0% | reduction in the mean number of pure liquid reflux episodes relative to placebo [3]: 44.1% | Difference in geometric mean, number of reflux episodes in supine position [3]: -31.2% | Difference in geometric mean, number of reflux episodes in upright position [3]: -46.1% | Difference in geometric mean, number of weakly acid reflux episodes [3]: -44.5% | Difference in geometric mean, number of acid reflux episodes [3]: -57.9% | Difference in geometric mean, number of mixed gas/liquid reflux episodes [3]: -42.5% | Difference in geometric mean, number of pure liquid reflux episodes [3]: -44.1% | Difference in geometric mean, proportion of time with esophageal pH < 4 [3]: -65.7% | Difference in geometric mean, proportion of time with intragastric pH < 4 [3]: +3.6% | Difference in geometric mean, proximal extent of reflux (cm) [3]: -66.3% | Difference in geometric mean, total number of reflux episodes [3]: -45.0% | reduction in the mean number of pure liquid reflux episodes relative to placebo [4]: 51.9% | Difference in geometric mean, number of reflux episodes in supine position [4]: -69.1% | Difference in geometric mean, number of reflux episodes in upright position [4]: -50.7% | Difference in geometric mean, number of weakly acid reflux episodes [4]: -45.1% | Difference in geometric mean, number of acid reflux episodes [4]: -57.1% | Difference in geometric mean, number of mixed gas/liquid reflux episodes [4]: -56.7% | Difference in geometric mean, number of pure liquid reflux episodes [4]: -51.9% | Difference in geometric mean, proportion of time with esophageal pH < 4 [4]: -73.0% | Difference in geometric mean, proportion of time with intragastric pH < 4 [4]: +27.7% | Difference in geometric mean, proximal extent of reflux (cm) [4]: -63.3% | Difference in geometric mean, total number of reflux episodes [4]: -52.8% | effect on mean number of pure gas reflux episodes relative to placebo (30, 90, 120, 240 mg twice in 24 h, data not shown): No significant effect | effect on mean number of non-acid reflux episodes relative to placebo (30, 90, 120, 240 mg twice in 24 h, pH > 6.5, data not shown): No significant effect | reduction relative to placebo in the mean number of reflux episodes, supine position (highest dose (240 mg) twice in 24 h, add-on to PPI): 69.1%
